Experimental data from article PMC8795149, “Characterization of a novel non-steroidal glucocorticoid receptor agonist optimized for topical treatment” (Scientific Reports, 2022).

Assays:
[1] = system: LPS-induced TNF-alpha release in PBMCs; assay: TNF-alpha inhibition assay, mouse PBMCs; assay type: cell-based; details: for EC50: geometric mean
Description: PMBCs were isolated from human buffy coats or animal whole blood (EDTA-treated). Buffy coats from anonymized healthy adult blood donors were obtained from the Blood Bank of the National University Hospital Copenhagen in accordance with national legislation. Whole blood from mice (obtained from Charles River) was sampled at the animal facility at LEO Pharma and whole blood from pigs was sourced from ScanTox. Test compounds and PBMCs were incubated with 1 µg/ml LPS (Sigma) overnight at 37 °C in HEPES and Glutamax-containing RPMI medium supplemented with either 0.5% human serum albumin (human PBMCs) or 10% fetal bovine serum (mouse and pig PBMCs) and penicillin/streptomycin. TNF-alpha was measured using AlphaLISA (Perkin Elmer).
IC50 of test compounds was determined by 10-point titrations in duplicates. IC50 values and other parameters were calculated by sigmoidal curve fitting in Assay Explorer.

TXNIP mRNA = assay: Human skin explant, TXNIP gene expression; assay type: cell-based; details: human skin explants, topical, 24 h; for TXNIP Relative ED50: weighted geometric mean ± SD
Description: (§1) NativeSkin models (NS002) were purchased from Genoskin, France. Human skin samples from abdominal reduction surgery were obtained by Genoskin from donors upon written informed consent. Full ethical approval for the study protocol was obtained from the French ethical research committee (Comité de Protection des Personnes), and authorization was given by the French Ministry of Research. The study was conducted according to the Declaration of Helsinki. 8 mm punch biopsies were excised and embedded in a fibrin-based matrix in transwells and a silicone ring was firmly attached to the surface covering the outer edge of the skin biopsy to prevent lateral diffusion of topically applied formulations. Skin models were cultured in a defined hydrocortisone- and serum-free medium provided by Genoskin.
(§2) LEO 134310 and reference glucocorticoids were dissolved in propylene carbonate and tested at 4 concentrations in five- or tenfold titrations. Compounds were applied in duplicates or triplicates on the skin surface (0.5 cm^2) in a volume of 2 µL and incubated for 24 h. Vehicle and untreated samples were included for basal level of expression.
(§3) RNA was extracted and qPCR was performed using TaqMan gene expression assays (FKBP5-Hs01561006_m1, TSC22D3 (GILZ)-Hs00608272_m1, TXNIP-Hs01006900_g1, ACTB-Hs99999903_m1, PPIA-Hs99999904_m1, GAPDH-Hs99999905_m1). Gene expression of FKBP5,TSC22D3 (GILZ), and TXNIP was normalized to the geometric mean of the reference genes ACTB, PPIA and GAPDH.
(§4) Doses were expressed as compound (API) concentrations (µg/mL) in the applied formulations. Relative upregulation of FKBP5 was estimated as − fold to vehicle treated control. Effective doses (Emax and ED50) were determined from a sigmoid Emax model in Phoenix64 version 8.0, Pharsight, Certara. Mean values and standard deviation of Emax and ED50 were calculated by weighing individual experiments based on the intra- and inter-experiment variability.

GILZ mRNA = assay: Human skin explant, GILZ gene expression; assay type: cell-based; details: human skin explants, topical, 24 h; for GILZ Relative ED50: weighted geometric mean ± SD
Description: as §1, §2, §3, §4

GR = biological target: T1, GR (Homo sapiens, UniProt P04150); assay: Reversal of GR agonist-mediated suppression of cytokine release from LPS-stimulated PBMC by RU486; assay type: cell-based; parameters: endogenous in cells; details: 100 nM agonist
T1 sequence (P04150 1-777): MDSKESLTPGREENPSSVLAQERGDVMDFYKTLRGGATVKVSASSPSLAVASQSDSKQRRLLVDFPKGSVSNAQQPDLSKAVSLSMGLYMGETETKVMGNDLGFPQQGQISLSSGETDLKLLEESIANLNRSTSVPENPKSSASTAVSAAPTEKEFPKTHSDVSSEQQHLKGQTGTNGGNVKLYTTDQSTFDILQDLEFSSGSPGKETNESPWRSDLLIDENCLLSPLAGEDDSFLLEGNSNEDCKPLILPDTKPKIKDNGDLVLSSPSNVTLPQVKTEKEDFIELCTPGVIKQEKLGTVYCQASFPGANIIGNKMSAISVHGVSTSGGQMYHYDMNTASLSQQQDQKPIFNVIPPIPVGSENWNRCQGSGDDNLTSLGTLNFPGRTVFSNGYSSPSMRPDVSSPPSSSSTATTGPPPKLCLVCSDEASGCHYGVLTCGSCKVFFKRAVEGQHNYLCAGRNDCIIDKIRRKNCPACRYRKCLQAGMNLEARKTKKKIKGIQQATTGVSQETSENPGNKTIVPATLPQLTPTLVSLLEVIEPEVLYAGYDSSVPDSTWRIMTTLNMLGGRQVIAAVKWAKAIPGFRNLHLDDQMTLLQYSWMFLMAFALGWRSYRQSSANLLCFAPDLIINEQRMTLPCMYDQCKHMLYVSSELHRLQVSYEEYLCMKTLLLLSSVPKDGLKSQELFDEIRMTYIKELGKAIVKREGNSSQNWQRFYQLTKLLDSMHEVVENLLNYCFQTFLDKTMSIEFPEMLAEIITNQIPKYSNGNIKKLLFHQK
Description: PMBCs were isolated from human buffy coats obtained in accordance with national legislation and following in-house protocol at Charles River Laboratories (Leiden, Netherlands). Test compounds and PBMCs were incubated with 10 ng/ml LPS (Sigma) overnight at 37°C in HEPES and Glutamax-containing RPMI medium supplemented with 0.5% human serum albumin (human PBMCs) and penicillin/streptomycin. TNF-alpha, IL-1-beta, and IL-6 were measured by MSD multiplex assay (Meso Scale Discovery).Compound concentration in dermis (Figure S4)

[2] = system: TPA-induced skin inflammation; assay: TPA-induced skin inflammation in mice, efficacy; assay type: in vivo; details: TPA mouse model; for Ear biopsy weight ID50 (API concentration in formulation) / Ear biopsy weight Imax: topical, CV (%) in brackets
Description: Female Balb/c mice of 7 to 8 weeks old were obtained from Charles River, Germany and acclimatized for at least 1 week. Skin inflammation was induced by repeated topical application of TPA (20 μL of 0.01% TPA in acetone; 10 μL to each side of ear) on days 1, 3, 5, 8 and 10.
Treatments were performed by topical application of either vehicle (90% acetone, 10% transcutol), Treatments were applied twice daily on days 8, 9, 10, and once on day 11 (20–10 μL to each side of ear) with at least 5 h between the first and second treatment. TPA challenge on days 8 and 10 was performed at least 1 h after the first treatment. On day 11, animals were sacrificed 2 h after the last dosing. Blood was sampled by cardiac puncture from animals anaesthetized with isoflurane. Thereafter, ear biopsies were taken with a biopsy punch (8 mm diameter), weighed and stored at – 80 °C. Plasma osteocalcin levels were analyzed by EIA (rat-MID, IDS, UK). Effective inhibitory doses (ID50) were determined from a sigmoid I(max) model in Phoenix64, Pharsight, Certara. Therapeutic Index (TI) was calculated either as ID50 for spleen weight reduction or ID50 for blood osteocalcin concentrations, divided by ID50 for ear weight reduction.
RNA was extracted from biopsies and qPCR was performed using TaqMan gene expression assays (Fkbp5-Mm00487406_m1, Tsc22d3 (Gilz)-Mm00726417_s1, Actb-Mm00607939_s1, Pgk1-Mm00435617_m1, Tbp-Mm00446971_m1, Ubc-Mm02525934_g1). Gene expression of Fkbp5 and Tsc22d3 (Gilz) was normalized to the geometric mean of the reference genes Actb, Pgk1, Tbp and Ubc.

SMILES | Emax ([1]; PBMC) [%] | EC50 ([1]; PBMC) [nM] | TXNIP Emax (TXNIP mRNA) | TXNIP Relative ED50 (TXNIP mRNA) | GILZ Emax (GILZ mRNA) | GILZ Relative ED50 (GILZ mRNA) | Reversal by GR antagonist RU486 of inhibition of LPS-induced cytokine release (GR) | Ear biopsy weight ID50 (API concentration in formulation) [2] | Ear biopsy weight Imax [2] | Inhibition of LPS-induced TNF-alpha release Emax [1] [%] | EC50 [1] [nM] | Less potent than BMV, reduction in ear biopsy weight [2] [fold] | Less potent than CP, reduction in ear biopsy weight [2]
CCCCC(=O)O[C@]1(C(=O)CO)[C@@H](C)C[C@H]2[C@@H]3CCC4=CC(=O)C=C[C@]4(C)[C@@]3(F)[C@@H](O)C[C@@]21C [BMV, Betamethasone Valerate] | 95 | 0.22 | 17 ± 17 fold to control | 52 ± 15 µg/mL | 6.1 ± 3.7 fold to control | 5.1 ± 27 µg/mL | could be reversed in a concentration-dependent manner | 5.1 (73) µg/mL | 69 (17) % | – | – | – | –
CCC(=O)O[C@]1(C(=O)CCl)[C@@H](C)C[C@H]2[C@@H]3CCC4=CC(=O)C=C[C@]4(C)[C@@]3(F)[C@@H](O)C[C@@]21C [CP, Clobetasol Propionate] | 95 | 0.15 | 19 ± 8.5^NS fold to control | 1.3 ± 0.33 µg/mL | 7.7 ± 2.5^NS fold to control | 1.1 ± 0.25^NS µg/mL | could be reversed in a concentration-dependent manner | 1.5 (69) µg/mL | 67 (14) % | – | – | – | –
C[C@H](NC(=O)[C@H]1CCCO1)[C@H](Oc1ccc(C(=O)O[C@H]2CCCN(C(=O)[C@H]3COC(=O)C3)C2)cc1)c1ccc(C2CC2)cc1 [LEO 134310] | – | – | 19 ± 7.3^NS fold to control | 110 ± 300^NS µg/mL | 6.7 ± 2.7^NS fold to control | 270 ± 110 µg/mL | could be reversed in a concentration-dependent manner | 500 (250) µg/mL | 64 (39) % | 102 | 0.58 | ~100 | approximately 300 fold
